Measured values reported in patent US9993459B2, “Selective HDAC6 inhibitors and uses thereof” (Universiteit Gent, priority 2015, dated 2018).
Values joined by “and” are separate entries in the source; they are usually repeats but may differ in a detail not shown here. Equal entries are not always repeated.

Experiments:
HDAC6 = molecular target: T1, HDAC6 (Homo sapiens, UniProt Q9UBN7); test: In vitro HDAC6 inhibition; assay type: biochemical; details: for inhibition at 10 µM: HDAC6, 10 μM; for IC50: HDAC6, Table 1, read-out: IC50
T1 sequence (Q9UBN7 1-1215): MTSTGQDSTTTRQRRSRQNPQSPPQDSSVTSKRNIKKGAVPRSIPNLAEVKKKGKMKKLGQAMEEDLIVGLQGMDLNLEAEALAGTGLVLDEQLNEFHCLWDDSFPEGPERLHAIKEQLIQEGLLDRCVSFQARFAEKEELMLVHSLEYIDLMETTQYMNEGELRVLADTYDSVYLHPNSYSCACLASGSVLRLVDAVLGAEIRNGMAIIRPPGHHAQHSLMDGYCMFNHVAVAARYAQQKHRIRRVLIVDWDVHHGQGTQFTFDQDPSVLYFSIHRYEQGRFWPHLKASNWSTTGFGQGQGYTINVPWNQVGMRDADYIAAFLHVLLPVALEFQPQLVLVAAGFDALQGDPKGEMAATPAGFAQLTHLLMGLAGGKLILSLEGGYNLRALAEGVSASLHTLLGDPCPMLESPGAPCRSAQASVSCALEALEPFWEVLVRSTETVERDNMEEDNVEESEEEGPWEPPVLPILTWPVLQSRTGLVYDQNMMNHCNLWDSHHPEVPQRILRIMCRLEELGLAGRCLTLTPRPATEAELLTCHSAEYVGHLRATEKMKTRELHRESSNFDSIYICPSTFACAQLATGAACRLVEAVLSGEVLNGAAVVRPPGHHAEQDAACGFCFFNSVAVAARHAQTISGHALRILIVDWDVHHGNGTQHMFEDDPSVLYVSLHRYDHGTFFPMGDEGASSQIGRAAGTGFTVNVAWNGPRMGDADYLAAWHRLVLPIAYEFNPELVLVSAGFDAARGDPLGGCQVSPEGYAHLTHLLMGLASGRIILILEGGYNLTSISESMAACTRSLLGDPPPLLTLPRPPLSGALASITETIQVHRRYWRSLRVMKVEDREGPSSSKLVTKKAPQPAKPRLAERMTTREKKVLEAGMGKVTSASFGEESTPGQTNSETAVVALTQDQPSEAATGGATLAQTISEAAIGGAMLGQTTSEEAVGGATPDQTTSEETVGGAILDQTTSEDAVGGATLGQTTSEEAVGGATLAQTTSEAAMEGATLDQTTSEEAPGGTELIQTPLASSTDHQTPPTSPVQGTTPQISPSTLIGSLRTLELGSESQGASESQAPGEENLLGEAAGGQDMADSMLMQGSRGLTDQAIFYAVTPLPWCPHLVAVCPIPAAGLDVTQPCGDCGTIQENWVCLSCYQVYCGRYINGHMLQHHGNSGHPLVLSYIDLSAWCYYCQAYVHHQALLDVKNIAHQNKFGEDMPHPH

AP-1 = details: published before; cited from earlier work
[1] = system: glucocorticoid receptor, GR; test: GRE-dependent luciferase reporter p(GRE)2-50-luc in A549 cells; assay type: cell-based; details: A549; DEX 1 μM; CpdA 10 μM before DEX
[2] = system: TNF-α and IL-6 in LPS stimulated human THP-1 macrophages; details: reported; cited from earlier work
[3] = system: acetylation of α-tubulin in Neuro-2a cells; test: Acetylation level of α-tubulin in Neuro-2a cells (Western blot); assay type: cell-based, Mouse; details: overnight, Neuro-2a; for normalized ratio Acetyl α-Tubulin/α-Tubulin against Tubastatin A, Average: Average of N = 1 to 4
Experimental: FIG. 1: Potency of inhibiting HDAC6 by compounds 7a, 7b and 13a in Neuro-2a cells. A. Cells were treated overnight with different concentrations of the HDAC6 inhibitors and blotted of the acetylation of α-tubulin.
Mouse neuroblastoma (Neuro-2a) cells were grown in a 1:1 mix of D-MEM (Dulbecco's Modified Eagle Medium) and F12 medium supplemented with glutamax (Invitrogen), 100 μg/ml streptomycin, 100 U/ml penicillin (Invitrogen), 10% fetal calf serum (Greiner Bio-one), 1% non-essential amino acids (Invitrogen) and 1.6% NaHCO3 (Invitrogen) at 37° C. and 7.5% CO2. To split the cells, cells were washed with Versene (Invitrogen) and dissociated with 0.05% Trypsine-EDTA (Invitrogen).
For sodium dodecyl sulfate-polyacrylamide gel electrophoresis (SDS-PAGE) analysis, transfected cells were collected using the EpiQuik Total Histone Extraction Kit (EpiGentek) according to manufacturer's instructions. Protein concentrations were determined using microBCA kit (Thermo Fisher Scientific Inc., Pittsburgh, Pa., USA) according to manufacturer's instructions. Before resolving the samples on a 12% SDS-PAGE gel, samples containing equal amounts of protein were supplemented with reducing sample buffer (Thermo Scientific) and boiled at 95° C. for 5 min. After electrophoresis, the proteins were transferred to a polyvinylidene difluoride (PVDF) membrane (Millipore Corp., Bedford, Mass., USA). The non-specific binding was blocked by incubation of the membrane in 5% bovine serum albumin (BSA), diluted in Tris Buffered Saline Tween (TBST, 50 mM TRIS, 150 mM NaCl, 0.1% Tween-20 (Applichem, Darmstadt, Duitsland) for 1 h at room temperature followed by incubation with primary antibodies overnight. The antibodies, diluted in TBS-T, were directed against α-tubulin (1/5000, T6199, Sigma-Aldrich), and acetylated α-tubulin (1/5000, T6793 monoclonal, Sigma-Aldrich). The secondary antibodies, coupled to alkaline phosphatase (anti-mouse or anti-rabbit, 1/5000, Sigma-Aldrich) were used. Blots were visualised by adding the ECF substrate (Enhanced Chemical Fluorescence, GE Healthcare, Uppsala, Sweden) and imaged with the ImageQuant_LAS 4000. A mild reblotting buffer (Millipore) was applied to strip the blots. ImageQuant TL version 7.0-software was used to quantify the blots.
Neuro-2a cells were treated overnight with different concentrations of the HDAC6 inhibitors and the effect on the acetylation level of α-tubulin was determined using Western blots (FIG. 1).

Structure (SMILES)	inhibition at 10 µM (HDAC6)	IC50 (HDAC6)	melting point	other results
O=C(NO)c1ccc(NCc2csc3ccc(-c4ccccc4)cc23)cc1 [Compound 7c, 3-[(4-hydroxycarbamoylphenyl)aminomethyl]-5-phenyl-benzothiophene]	95.1%	310 nM	181 °C	–
Cc1cc(C(=O)NO)ccc1NCc1csc2ccccc12 [Compound 7d, 3-[(4-hydroxycarbamoyl-2-methylphenyl)aminomethyl]-benzothiophene]	73.4%	2400 nM	190 °C	–
O=C(NO)c1ccc(N(Cc2ccccc2)Cc2csc3ccccc23)cc1 [Compound 8a, 3-[N-benzyl-N-(4-hydroxycarbamoylphenyl)aminomethyl]-benzothiophene]	89.9%	470 nM	178 °C	–
O=C(NO)c1ccc(N(Cc2ccccc2)Cc2csc3ccc(Br)cc23)cc1 [Compound 8b, 5-bromo-3-[N-benzyl-N-(4-hydroxycarbamoylphenyl)aminomethyl]-benzothiophene]	84.9%	850 nM	179 °C	–
O=C(NO)c1ccc(N(Cc2ccccc2)Cc2csc3ccc(-c4ccccc4)cc23)cc1 [Compound 8c, 3-[N-benzyl-N-(4-hydroxycarbamoylphenyl)aminomethyl]-5-phenyl-benzothiophene]	47.9%	–	126 °C	–
O=C(NO)c1ccc(NCc2csc3cc(-c4ccccc4)ccc23)cc1 [Compound 13b, 3-[(4-hydroxycarbamoylphenyl)aminomethyl]-6-phenyl-benzothiophene]	89.8%	660 nM	190.5 °C	–
O=C(NO)c1ccc(N(Cc2ccccc2)Cc2csc3cc(Br)ccc23)cc1 [Compound 14a, 6-bromo-3-[N-benzyl-N-(4-hydroxycarbamoylphenyl)aminomethyl]-benzothiophene]	70.7%	2100 nM	97.5 °C	–
O=C(NO)c1ccc(N(Cc2ccccc2)Cc2csc3cc(-c4ccccc4)ccc23)cc1 [Compound 14b, 3-[N-benzyl-N-(4-hydroxycarbamoylphenyl)aminomethyl]-6-phenyl-benzothiophene]	61.1%	–	102 °C	–
O=C(NO)c1ccc(NCc2c[nH]c3ccccc23)cc1 [Compound 18, 3-[(4-hydroxycarbamoylphenyl)aminomethyl]indole]	99%	200 nM	132.5 °C	–
CNCC(Cl)c1ccc(OC(C)=O)cc1.Cl (stereo not drawn) [CpdA, reference compound]	–	–	–	targeting of AP-1-driven promoters (AP-1): does not target AP-1-driven promoters; GRE-dependent reporter gene activity, reference compounds [1]: able to lower the GRE-dependent reporter gene activity
CN1CCc2c(c3ccccc3n2Cc2ccc(C(=O)NO)cc2)C1 [Tub A, Tubastatin A, reference compound]	–	–	–	inhibition of TNF-α and IL-6 [2]: significantly inhibit TNF-α and IL-6; normalized ratio Acetyl α-Tubulin/α-Tubulin against Tubastatin A, Average ([3]; 50 nM): 34.97 and 25.12 and 23.86; normalized ratio Acetyl α-Tubulin/α-Tubulin against Tubastatin A, Average ([3]; 100 nM): 44.00 and 41.43 and 34.18; normalized ratio Acetyl α-Tubulin/α-Tubulin against Tubastatin A, Average ([3]; 500 nM): 66.24 and 73.15 and 70.36; normalized ratio Acetyl α-Tubulin/α-Tubulin against Tubastatin A, Average ([3]; 1 μM): 100.00; normalized ratio Acetyl α-Tubulin/α-Tubulin against Tubastatin A ([3]; 1 μM, single experiments N = 1 to 4, Tub A 1 μM = 100): 100.00
